Laboratory results from US20230083885A1, “MODULATORS OF INTEGRATED STRESS RESPONSE PATHWAY” (Praxis Biotech LLC, priority 2021, published 2023).
Like-named read-outs stand apart in the source and are kept apart here.

Tests used:
ATF4 = ATF4 expression inhibition assay (ATF4 5'UTR luciferase reporter, thapsigargin-stressed); assay type: cell-based; settings: Homo sapiens, HEK-293T, read-out: ATF4 inhibition
Protocol: The ATF4 reporter was prepared by fusing the human full length 5′UTR of ATF4 (NCBI Accession No. BC022088.2) upstream of the firefly luciferase coding sequence lacking the initiator methionine. The fused sequence was cloned into pLenti-EF1a-C-Myc-DDK-IRES-Puro cloning vector (Origen #PS100085) using standard methods.
HEK293T cells carrying the ATF4 luciferase reporter were plated on 96-well plates (Nunc) at 10,000 cells per well. Cells were treated two days after seeding with 100 nM thapsigargin (Tg) (Sigma-Aldrich #T9033) in the presence of different concentrations of selected compounds ranging from 0.1 nM to 10 μM. Cells without treatment or cells treated with Tg alone were used as controls. Assay plates containing cells were incubated for 3 hours at 37° C.
Luciferase reactions were performed using Luciferase Assay System (Promega #E1501) as specified by the manufacturer. Luminescence was read with an integration time of 1 s and a gain of 110 using a Cytation-5 multi-mode microplate reader (BioTek).

[1] = test system: Chinese hamster ovary (CHO) cells; experiment: Protein synthesis assay (puromycin incorporation, Western blot); assay type: cell-based; settings: Cricetulus griseus, read-out: % Protein synthesis relative to untreated (1 μM test compound)
Protocol: Chinese hamster ovary (CHO) cells were maintained at 37° C. and 5% CO2 in Dulbecco's Modified Eagle's Media (DMEM) supplemented with 10% fetal bovine serum, 2 mM L-glutamine, 100 U/ml penicillin, and 100 μg/ml streptomycin. After reaching 80% of confluence, cells were detached and seeded on 6 well plates in complete media, allowed to recover overnight and treated for 2 hours with 1 μM of the test compound (to assess protein synthesis levels in unstressed condition), or for 2 hours with 300 nM Tg in the presence of 1 μM of the test compound (to assess the recovery of protein synthesis in a stressed condition). Cells with Tg alone were used as controls.
After the 2 hours treatments, media were replaced by adding 10 μg/ml puromycin (Sigma Aldrich #P8833) in complete media for 30 min. Media were removed and cells were lysed with SDS-PAGE lysis buffer. Lysates were transferred to 1.5 ml tubes and sonicated for 3 min and total protein amount were quantified using BCA Protein Assay Kit (Pierce). Equal amount of protein (30 μg) was loaded on SDS-PAGE gels.
A HRP-conjugated secondary antibody (Rockland) was employed to detect immune-reactive bands using enhanced chemiluminescence (ECL Western Blotting Substrate, Pierce). Quantification of protein bands was done by densitometry using ImageJ software.
The percentage levels were normalized to the media alone condition, which correspond to 100% protein synthesis. […]

[2] = HEK293T cells carrying ATF4 luciferase reporter, 100 nM thapsigargin, 3 hours
[3] = unstressed CHO cells (without Tg), 1 μM test compound, 2 hours, media alone = 100%

Compound `O=C(COc1ccc(Cl)c(F)c1)NN1CCC(c2nnc([C@H]3C[C@@H](OC(F)(F)F)C3)o2)CC1` [Compound 242, 2-(4-chloro-3-fluorophenoxy)-N-(4-(5-(cis-3-(trifluoromethoxy)cyclobutyl)-1,3,4-oxadiazol-2-yl)piperidin-1-yl)acetamide] has an IC50 (ATF4; [2]) of under 10 nM and an activity at 1 µM [1, 3] of 23%.
Work on `O=C(COc1ccc(Cl)c(F)c1)N[C@H]1CC[C@H](c2nnc([C@H]3CNc4cc(Cl)ccc4O3)o2)CC1` (single isomer, unassigned) [Compound 43] yielded an IC50 (ATF4; [2]) of under 10 nM and an activity at 1 µM [1, 3] of 86.3%.
`O=C(COc1ccc(Cl)c(F)c1)N[C@H]1CC[C@@H](c2cnn(-c3ccc(Cl)cc3)c2)CC1` [Compound 36, cis-2-(4-chloro-3-fluorophenoxy)-N-(4-(1-(4-chlorophenyl)-1H-pyrazol-4-yl)cyclohexyl)acetamide] gave an IC50 (ATF4; [2]) of 100 to 1000 nM and an activity at 1 µM [1, 3] of 6.4%.
`O=C(Nc1ccc2cc(Cl)ccc2n1)[C@H]1CC[C@H](c2cnn(-c3ccc(Cl)cc3)c2)CC1` [Compound 250, trans-4-(1-(4-chlorophenyl)-1H-pyrazol-4-yl)-N-(6-chloroquinolin-2-yl)cyclohexanecarboxamide] was tested, and the IC50 (ATF4; [2]) was 10 to 100 nM and the activity at 1 µM [1, 3] was 25%.
For `O=C(NC[C@H]1CC[C@H](c2nnc(-c3ccc(Cl)cc3)o2)CC1)c1ccc2cc(Cl)ccc2n1` [Compound 1, trans-6-chloro-N-((4-(5-(4-chlorophenyl)-1,3,4-oxadiazol-2-yl)cyclohexyl)methyl)quinoline-2-carboxamide], the IC50 (ATF4; 3 h) was over 1000 nM and the activity at 1 µM ([1]; CHO, 2 h) was 158%.
Compound `O=C(COc1ccc(Cl)c(F)c1)N[C@H]1CC[C@H](c2nc(-c3ccc(Cl)cc3)cs2)CC1` [Compound 34, trans-2-(4-chloro-3-fluorophenoxy)-N-(4-(4-(4-chlorophenyl)thiazol-2-yl)cyclohexyl)acetamide] has an IC50 (ATF4; 3 h) of under 10 nM and an activity at 1 µM ([1]; CHO, 2 h) of 83.4%.
`O=C(Nc1ccc2cc(Cl)ccc2n1)C1CCN(c2nnc([C@H]3C[C@@H](OC(F)(F)F)C3)o2)CC1` [Compound 50, N-(6-chloroquinolin-2-yl)-1-(5-(cis-3-(trifluoromethoxy)cyclobutyl)-1,3,4-oxadiazol-2-yl)piperidine-4-carboxamide] was tested, and the IC50 (ATF4; [2]) was 100 to 1000 nM.
Compound `O=C(Nc1ccc2cc(Cl)ccc2n1)[C@H]1CC[C@@H](c2cnn(-c3ccc(Cl)cc3)c2)CC1` [Compound 249, cis-4-(1-(4-chlorophenyl)-1H-pyrazol-4-yl)-N-(6-chloroquinolin-2-yl)cyclohexanecarboxamide] has an IC50 (ATF4; [2]) of 100 to 1000 nM.
`O=C(Nc1ccc2cc(Cl)ccc2n1)[C@H]1CC[C@H](c2nnc(CO[C@H]3C[C@@H](OC(F)(F)F)C3)o2)CC1` [Compound 38, trans-N-(6-chloroquinolin-2-yl)-4-(5-((cis-3-(trifluoromethoxy)cyclobutoxy)methyl)-1,3,4-oxadiazol-2-yl)cyclohexanecarboxamide] gave an IC50 (ATF4; [2]) of 100 to 1000 nM.
`O=C(Nc1nc2cc(Cl)ccc2o1)[C@H]1CC[C@H](c2nnc(CO[C@H]3C[C@@H](OC(F)(F)F)C3)o2)CC1` [Compound 41, trans-N-(5-chlorobenzo[d]oxazol-2-yl)-4-(5-((cis-3-(trifluoromethoxy)cyclobutoxy)methyl)-1,3,4-oxadiazol-2-yl)cyclohexanecarboxamide] showed an IC50 (ATF4; 3 h) of 100 to 1000 nM.
`O=C(Nc1nc2cc(Cl)ccc2s1)[C@H]1CC[C@H](c2nnc(CO[C@H]3C[C@@H](OC(F)(F)F)C3)o2)CC1` [Compound 39, trans-N-(5-chlorobenzo[d]thiazol-2-yl)-4-(5-((cis-3-(trifluoromethoxy)cyclobutoxy)methyl)-1,3,4-oxadiazol-2-yl)cyclohexanecarboxamide] showed an IC50 (ATF4; [2]) of over 1000 nM.
`O=C(NN1CCC(c2nnc([C@H]3C[C@@H](OC(F)(F)F)C3)o2)CC1)C1CNc2cc(Cl)ccc2O1` (some centres unmarked) [Compound 252, 6-chloro-N-(4-(5-((1s,3s)-3-(trifluoromethoxy)cyclobutyl)-1,3,4-oxadiazol-2-yl)piperidin-1-yl)-3,4-dihydro-2H-benzo[b][1,4]oxazine-2-carboxamide] was tested, and the IC50 (ATF4; [2]) was under 10 nM.
`O=C(Nc1nc2cc(Cl)ccc2s1)[C@H]1CC[C@H](c2nnc([C@H]3C[C@@H](OC(F)(F)F)C3)o2)CC1` [Compound 52, trans-N-(5-chlorobenzo[d]thiazol-2-yl)-4-(5-(cis-3-(trifluoromethoxy)cyclobutyl)-1,3,4-oxadiazol-2-yl)cyclohexanecarboxamide] gave an IC50 (ATF4; [2]) of 10 to 100 nM.
For `O=C(NCc1cc2cc(Cl)ccc2o1)[C@H]1CC[C@H](c2nnc(COc3ccc(Cl)cc3)o2)CC1` [Compound 53, trans-N-((5-chlorobenzofuran-2-yl)methyl)-4-(5-((4-chlorophenoxy)methyl)-1,3,4-oxadiazol-2-yl)cyclohexanecarboxamide], the IC50 (ATF4; [2]) was 100 to 1000 nM.
In the case of `O=C(Nc1ccc2cc(Cl)ccc2n1)[C@H]1CC[C@H](c2nnc([C@@H]3CNc4cc(Cl)ccc4O3)o2)CC1` (single isomer, unassigned) [Compound 245], the IC50 (ATF4; [2]) is reported as 100 to 1000 nM.
With `O=C(NN1CCC(c2nnc([C@H]3C[C@@H](OC(F)(F)F)C3)o2)CC1)c1cc2cc(Cl)ccc2o1` [Compound 251, 5-chloro-N-(4-(5-(cis-3-(trifluoromethoxy)cyclobutyl)-1,3,4-oxadiazol-2-yl)piperidin-1-yl)benzofuran-2-carboxamide] the IC50 (ATF4; [2]) was under 10 nM.
In the case of `O=C(NC[C@H]1CC[C@H](c2nnc(-c3ccc(Cl)cc3)o2)CC1)[C@H]1C[C@@H](O)c2cc(Cl)ccc2O1` [Compound 253, (2R,4R)-6-chloro-N-((trans-4-(5-(4-chlorophenyl)-1,3,4-oxadiazol-2-yl)cyclohexyl)methyl)-4-hydroxychroman-2-carboxamide], the IC50 (ATF4; [2]) is reported as 100 to 1000 nM.
In the case of `O=C(Nc1nc2cc(Cl)ccc2o1)[C@H]1CC[C@H](c2nnc([C@H]3C[C@@H](OC(F)(F)F)C3)o2)CC1` [Compound 241, trans-N-(5-chlorobenzo[d]oxazol-2-yl)-4-(5-(3-(cis-trifluoromethoxy)cyclobutyl)-1,3,4-oxadiazol-2-yl)cyclohexanecarboxamide], the IC50 (ATF4; [2]) is reported as 100 to 1000 nM.
With `O=C(NCc1cc2cc(Cl)ccc2o1)[C@H]1CC[C@H](c2nnc(-c3cc4cc(Cl)ccc4o3)o2)CC1` [Compound 54, trans-4-(5-(5-chlorobenzofuran-2-yl)-1,3,4-oxadiazol-2-yl)-N-((5-chlorobenzofuran-2-yl)methyl)cyclohexanecarboxamide] the IC50 (ATF4; [2]) was 100 to 1000 nM.
With `O=C(NC[C@H]1CC[C@H](c2nnc(-c3ccc(Cl)cc3)o2)CC1)c1ccc(C(F)(F)F)cn1` [Compound 20, trans-N-((4-(5-(4-chlorophenyl)-1,3,4-oxadiazol-2-yl)cyclohexyl)methyl)-5-(trifluoromethyl)picolinamide] the IC50 (ATF4; [2]) was 100 to 1000 nM.
Work on `O=C(NC[C@H]1CC[C@H](c2nnc(-c3ccc(Cl)cc3)o2)CC1)c1ccc(C(F)(F)F)nc1` [Compound 21, trans-N-((4-(5-(4-chlorophenyl)-1,3,4-oxadiazol-2-yl)cyclohexyl)methyl)-6-(trifluoromethyl)nicotinamide] yielded an IC50 (ATF4; [2]) of 100 to 1000 nM.
`O=C(Nc1ccc2cc(Cl)ccc2n1)C1CCN(c2nnc(-c3ccc(Cl)cc3)o2)CC1` [Compound 49, 1-(5-(4-chlorophenyl)-1,3,4-oxadiazol-2-yl)-N-(6-chloroquinolin-2-yl)piperidine-4-carboxamide] gave an IC50 (ATF4; [2]) of 100 to 1000 nM.
With `O=C(Nc1ccc2cc(Cl)ccc2n1)[C@H]1CC[C@H](c2nnc(COc3ccc(Cl)cc3)o2)CC1` [Compound 40, trans-4-(5-((4-chlorophenoxy)methyl)-1,3,4-oxadiazol-2-yl)-N-(6-chloroquinolin-2-yl)cyclohexanecarboxamide] the IC50 (ATF4; [2]) was 10 to 100 nM.
With `O=C(NCc1cc2cc(Cl)ccc2o1)[C@H]1CC[C@H](c2nnc(-c3ccc(Cl)cc3)o2)CC1` [Compound 51, trans-N-((5-chlorobenzofuran-2-yl)methyl)-4-(5-(4-chlorophenyl)-1,3,4-oxadiazol-2-yl)cyclohexanecarboxamide] the IC50 (ATF4; [2]) was 100 to 1000 nM.
For `O=C(Nc1ccc2cc(Cl)ccc2n1)[C@H]1CC[C@H](c2nnc([C@H]3CNc4cc(Cl)ccc4O3)o2)CC1` (single isomer, unassigned) [Compound 246], the IC50 (ATF4; [2]) was 100 to 1000 nM.
For `O=C(Nc1ccc2cc(Cl)ccc2n1)[C@H]1CC[C@H](c2nnc([C@H]3C[C@@H](C(F)(F)F)C3)o2)CC1` [Compound 248, trans-N-(6-chloroquinolin-2-yl)-4-(5-(cis-3-(trifluoromethyl)cyclobutyl)-1,3,4-oxadiazol-2-yl)cyclohexanecarboxamide], the IC50 (ATF4; [2]) was 100 to 1000 nM.
